Results taken from patent US12497359B2, “Acrylamide derivatives” (NRG Therapeutics Ltd, priority 2020, dated 2025).
≈ marks a conversion by molar mass, not a printed value.

Legend:
mPTP [1] = experiment: mPTP activity assay in isolated rat liver mitochondria (Ca2+ retention, Fluo5N, FLIPR); type: biochemical; conditions: isolated rat liver mitochondria; average value from multiple experiments (n ≥ 2)
Source text: Pharmacological inhibition or modulation of the mPTP can be measured in well characterised ‘Ca^2+ retention’ assays performed in isolated mitochondria. In vitro, isolated mitochondria rapidly sequester exogenous Ca^2+ until the intramitochondrial Ca^2+ concentration reaches the threshold for mPTP activation. Once the pore is activated, mitochondrial integrity is compromised and the stored Ca^2+ is released. The distribution of Ca^2+ between extra- and intra-mitochondrial compartments can be measured in real time with the use of membrane-impermeant Ca^2+ sensitive fluorescent dyes. Depending on the configuration of the assay, inhibition or modulation of the mPTP either delays the opening of the pore or increases the concentration of Ca^2+ required to induce mPTP opening.
mPTP activity was measured in mitochondria freshly isolated from female Sprague Dawley (250 to 300 gram) rat livers using the following method. Cervical dislocation was performed on the rat. The liver was then perfused in-situ with ˜40 ml cold Dulbecco's Phosphate Buffered Saline (DPBS) prior to dissection and transferred into 30 ml Isolation Buffer (250 mM Sucrose, 10 mM KCl, 1 mM EGTA, 1 mM EDTA, 25 mM HEPES, adjusted to pH 7.5 with 1 M NaOH). Each lobe of the liver was then removed from the buffer, minced using tweezers and a scalpel into ˜5 mm pieces then transferred into a 50 ml Potterton dounce homogenization tube on ice containing 30 ml ice-cold centrifugation buffer (300 mM Trehalose, 25 mM HEPES, 1 mM EGTA, 1 mM EDTA, 10 mM KCl, adjusted to pH 7.5 with 1 M NaOH and supplemented with 0.1% bovine serum albumin (BSA) and complete protease inhibitor cocktail (one tablet of inhibitor per 50 mls of buffer). Homogenisation was carried out using a teflon pestle at 1800 rpm. The slurry was centrifuged at 800 g for 10 min at 4° C., then the supernatant centrifuged at 10,000 g for 10 min. The pellet was washed once with FLIPR assay buffer (75 mM Mannitol, 25 mM Sucrose, 5 mM Potassium Phosphate Monobasic, 20 mM Tris base, 100 mM KCl, 0.1% BSA adjusted to pH 7.4 with 5 M HCl) centrifuged again, then resuspended in FLIPR assay buffer to a concentration of 8.8 mg/ml protein.
Test compounds (10 mM stock in DMSO) were serially diluted in DMSO in half log steps to generate 10 test concentrations (final concentrations in assay 30 μM to 1 nM). An intermediate dilution of 5 μl DMSO samples into 247 μl FLIPR assay buffer was carried out prior to transfer of 5 μl into duplicate wells of a 384 well polypropylene assay plate. Control wells were 0.5% (v/v) DMSO and 5 μM cyclosporin A.
A stock mitochondria/Fluo5N assay solution was prepared in 5.6 ml FLIPR assay buffer (at RT) supplemented with succinate disodium salt (10 mM), rotenone (1 μM), Fluo5N pentapotassium salt (2 μM) and 1 ml mitochondria suspension, then transferred (15 μl) into the assay plate containing test compounds and incubated for 10 min at RT. Assay plates were then transferred to a FLIPR Tetra plate reader (Molecular Devices). Dye fluorescence was then measured every 3 sec for a total of 10 min. After 12 sec, a 2.5 μl bolus of CaCl2 (75 μM) was added from a source plate containing 675 μM CaCl2 in FLIPR assay buffer. IC50 values for test compounds were calculated using the fluorescence value collected at the 10 min timepoint with % inhibition calculated using the DMSO control and cyclosporin A values as […] respectively.

FaSSIF solubility = type: physicochemical; conditions: kinetic from dmso stock, Fasted state simulated intestinal fluid, 2 hr at 25° C.
Experimental: (§1) Test compounds were prepared as 10 mM stocks in DMSO and 15 μl samples transferred in duplicate into 1.5 mL glass flat bottom vials (BioTech Solutions). Fasted state simulated intestinal fluid (FaSSIF) or PBS (pH 7.4) was added to each vial to final volume of 500 μl. One PTFE encapsulated stir stick (V&P Scientific) was placed in each vial before sealing with PTFE/SIL plugs (BioTech Solutions). Vials were shaken at 1100 rpm for 2 hr at 25° C. Samples were then filtered through MultiScreen Solvinert filter plates (Millipore) via vacuum filtration. Aliquots of filtrate (5 μl) plus 5 μl DMSO were diluted in 490 μl 50% acetonitrile in water containing internal standard. The filtrate was analysed and quantified against a standard of known concentration using LC-MS/MS. Solubility values of the test compound and control compound were calculated as follows: [Sample]=(Area ratiosample*INJ VOL STD*DFsample*[STD])/(Area ratio STD*INJ VOLsample).

[2] = Hepatocyte clearance assay, rat; type: in vitro ADME; conditions: cryopreserved primary rat hepatocytes, average value from two experiments, read-out: Rat heps intrinsic clearance (CLint)
Experimental: (§2) In vitro clearance studies were performed in primary rat and human hepatocytes (BioIVT). Vials of cryopreserved rat or human hepatocytes were thawed in a 37° C. water bath for 2 min. Cells were transferred into thawing medium (Williams' Medium E containing 30% Percoll, 1× GlutaMAX-1, 15 mM HEPES, 5% fetal bovine serum (FBS), 4 μg/ml insulin, 1 μM dexamethasone), centrifuged at 100 g for 10 min then resuspended in culture medium (Leibovitz's L-15 Medium) at a concentration of 0.5×10^6 viable cells/mL (number of viable cells assessed using AO/PI staining). Hepatocytes (198 μL) were transferred into wells of a 96-well non-coated plate and placed in a 37° C. incubator for 10 min. Test compound solutions were prepared from 10 mM stocks in DMSO, diluted to 100 μM in 50% (v/v in water) acetonitrile. Test compound samples (2 μl) were added to each well of hepatocytes and incubated at 37° C. Samples (25 μl) were collected at t=0, 15, 30, […] and 120 min, mixed with 6 volumes (150 μl) of acetonitrile containing internal standard (100 nM alprazolam, 200 nM caffeine and 100 nM tolbutamide), vortexed for 5 min and centrifuged for 45 min at 3220 g. An aliquot of supernatant (100 μL) was diluted with 100 μL ultra-pure water, and the mixture was used for LC/MS/MS analysis. All incubations were performed in duplicate. Peak areas were determined from extracted ion chromatograms. The slope value, k, was determined by linear regression of the natural logarithm of the remaining percentage of the parent drug vs. incubation time curve. The in vitro half-life (in vitro t1/2) was determined from the slope value: in vitro t1/2=0.693/k. Conversion of the in vitro t1/2 (in min) into the in vitro intrinsic clearance (in vitro CLint, in μL/min/1×10^6 cells) was done using the following equation (mean of duplicate determinations): • in vitro CLint=kV/N • V=incubation volume (0.2 mL) • N=number of hepatocytes per well (0.1×10^6 cells). Microsomal Clearance Assay

[3] = Hepatocyte clearance assay, human; type: in vitro ADME; conditions: cryopreserved primary human hepatocytes, average value from two experiments, read-out: Human heps intrinsic clearance (CLint)
Experimental: as §2

mPTP [4] = experiment: mPTP activity assay in isolated rat brain mitochondria; type: biochemical; conditions: isolated rat brain mitochondria
Experimental: MPTP activity was measured in brain mitochondria freshly isolated from female Sprague Dawley (250 to 300 gram) rats. Anaesthetised rats were perfused in-situ with ˜40 ml cold Dulbecco's Phosphate Buffered Saline (DPBS), then brains dissected and transferred into 30 ml Isolation Buffer (225 mM mannitol, 75 mM sucrose, 1 mM EGTA, adjusted to pH 7.4 with 1 M NaOH). The brain was minced using tweezers and a scalpel into ˜5 mm pieces then transferred into a 50 ml Potterton Dounce homogenization tube on ice containing 10 ml ice-cold isolation buffer (as above with addition of Complete Protease inhibitor; 1 tablet per 50 ml buffer). Homogenisation was carried out using a teflon pestle at 1800 rpm. The slurry was centrifuged at 2000 g for 10 min at 4° C., then the supernatant centrifuged at 12,000 g for 9 min. The pellet was resuspended with a dounce homogeniser in isolation buffer as above but with the addition of 0.02% digitonin, centrifuged at 12,000 g for 11 min and finally resuspended in 5 ml modified isolation buffer (as above but with EGTA reduced to 0.1 mM).
Test compounds were prepared in 384 well polypropylene assay plates as described above for the liver mitochondria assay. A stock mitochondria/Fluo5N assay solution was prepared in 5.6 ml assay buffer (120 mM mannitol, 40 mM MOPS, 5 mM KH2PO4, 60 mM KCl, 10 mM pyruvate, 2 mM malate, 2 mM MgCl2, 20 μM ADP, 1.26 μM oligomycin A, adjusted to pH 7.4) supplemented with Fluo5N pentapotassium salt (2 μM) and 1 ml mitochondria suspension, then transferred (15 μl) into the assay plate containing test compounds and incubated for 10 min at RT. Assay plates were then transferred to a FLIPR Tetra plate reader (Molecular Devices). Dye fluorescence was then measured every 3 sec for a total of 10 min. After 12 sec, a 2.5 μl bolus of Ca2+(75 μM) was added from a source plate containing 675 μM CaCl2 in FLIPR assay buffer. IC50 values for test compounds were calculated using the fluorescence value collected at the 10 min timepoint with % inhibition calculated using the DMSO control and cyclosporin A values at […].

PBS solubility = type: physicochemical; conditions: aqueous buffer, kinetic from dmso stock; PBS pH 7.4, 2 hr at 25° C.
Experimental: as §1

mPTP Rat liver pIC50* (mPTP [1]) | solubility at 2 h (FaSSIF solubility) [µM] | hepatocyte CLint at 1 µM [2] [µL/min/1e6 cells] | hepatocyte CLint at 1 µM [3] [µL/min/1e6 cells] | mPTP Rat brain pIC50 (mPTP [4]) | solubility at 2 h (PBS solubility) [µM] | SMILES
5.8 | 296 (≈ 108 µg/mL) | 64 | 31 | – | – | O=C(/C=C/c1ccc2cn[nH]c2c1)Nc1ccccc1CCN1CC(F)C1 [Example 32, (E)-N-(2-(2-(3-fluoroazetidin-1-yl)ethyl)phenyl)-3-(1H-indazol-6-yl)acrylamide]
7.5 | 80 (≈ 26.7 µg/mL) | 25 | 13 | – | – | CO[C@H]1Cc2ccccc2[C@@H]1NC(=O)/C=C/c1ccc2cn[nH]c2c1 [Example 37, (E)-3-(1H-indazol-6-yl)-N-((1S,2S)-2-methoxy-2,3-dihydro-1H-inden-1-yl)acrylamide]
7.6 | 3 (≈ 0.874 µg/mL) | – | – | 7.6 | 1.2 (≈ 0.35 µg/mL) | Cc1cccc(C)c1NC(=O)/C=C/c1ccc2cn[nH]c2c1 [Example 24, (E)-N-(2,6-dimethylphenyl)-3-(1H-indazol-6-yl)acrylamide]
